Test results taken from article PMC7914304 (Bioorganic & medicinal chemistry, 2020).
Read-outs that look alike come from different tables or passages of the source.

Legend:
[1] = mice, oral, cited from earlier work
logP by HPLC method = assay type: physicochemical

| logP (logP by HPLC method) | Structure (SMILES) | AUC ([1]; 0.3 mg/kg) | Cmax ([1]; 0.3 mg/kg) | T1/2 ([1]; 0.3 mg/kg) | Tmax ([1]; 0.3 mg/kg) | AUC ([1]; 0.5 mg/kg) | Cmax ([1]; 0.5 mg/kg) | T1/2 ([1]; 0.5 mg/kg) | Tmax ([1]; 0.5 mg/kg) |
| --- | --- | --- | --- | --- | --- | --- | --- | --- | --- |
| 3.97 | CC[C@H](C)C(=O)N1CCC(NC(=O)Nc2ccc(OC(F)(F)F)cc2)CC1 [compound 3] | 2.53 µM·h | 195 nM | 7.7 h | 4 h |  |  |  |  |
|  | CC(=O)N1CCC(NC(=O)NC23CC4CC(CC(C4)C2)C3)CC1 [inhibitor 1] |  |  |  |  | 0.183 µM·h | 30 nM | 3 h | 1 h |
